Measurements: patent publication US20070212360A1, “Modulation of mitochondrial oxygen consumption for therapeutic purposes” (priority 2006, published 2007)

Columns and labels:
[1] = tested on: RKO and RKOShHIF1α 5×HRE-luciferase reporter tumors; assay: Bioluminescent imaging of HRE-luciferase reporter tumors in vivo; set-up: species or system mouse; details: twelve hours after single dose 60 mg/kg tirapazamine ip
Experimental: FIG. 8. Increasing oxygen consumption by inhibition of PDK activity increases tumor hypoxia. (a) Luciferase activity of wildtype and HIF1α knockdown RKO cells stably transfected with a HIF1 responsive luciferase reporter gene. Cells were exposed to 0.5% O2 for 24 hours in triplicate. Luminescence is normalized to normoxic HIF wildtype cells. (b) Luciferase activity of wildtype RKO HIF1 reporter cells exposed to 0.5% O2 for 24 hours in the presence of increasing concentrations of echinomycin. Data are normalized to the increase in signal observed in the absence of drug. (c) Bioluminescent imaging in vivo. Images show a representative animal bearing an RKO reporter tumor on the left flank and an RKOShHIF1α reporter tumor on the right flank as a function of time after ip injection of 50 mg/kg DCA. […] (d) Quantification of in vivo bioluminescence. […] The data represent the mean of three independent experiments, each comprising 5 RKO and 5 RKOShHIF1α reporter tumors.
FIG. 14. Luciferase activity of hypoxia reporter tumors in response to tirapazamine. Mice bearing 500 mm^3 RKO HRE-luciferase tumors were imaged using an IVIS100 bioluminescent imaging system, and the signal from each tumor was quantified. […]
Bioluminescent imaging. […] After 10 min, bioluminescence was measured in a Xenogen IVIS100 imaging system (Xenogen). Data was quantified by measuring total photons/s from uniform regions of interest. […]

[2] = tested on: HIFwt and HIFko MEFs; assay: Tirapazamine toxicity by colony formation (clonogenic viability); format: cell-based, mouse
Experimental: FIG. 6. HIF dependent decrease in oxygen consumption raises intracellular oxygen concentration, protects when oxygen is limiting, and decreases sensitivity to tirapazamine in vitro. A: Pimonidazole was used to determine the intracellular oxygen concentration of cells in culture. HIFwt and HIFko MEFs were grown at high density and exposed to 2% O2 or anoxia for 24 h in glass dishes. For the last 4 hours of treatment, cells were exposed to 60 μg/ml pimonidazole. Pimonidazole binding was quantitated by flow cytometry after binding of an FITC conjugated anti-pimo mAb. Results are representative of two independent experiments. B: HIF1α reduces oxygen consumption and protects cells when total oxygen is limited. HIFwt and HIFko cells were plated at high density and sealed in aluminum jigs at <0.02% oxygen. At the indicated times, cells were harvested and dead cells were quantitated by trypan blue exclusion. […] C. PDK1 is responsible for HIF-1's adaptive response when oxygen is limiting. A similar jig experiment was performed to measure survival in the parental RKO, the RKO ShRNAHIF1α and the RKOShPDK1 cells. Cell death by trypan blue uptake was measured 48 h after the jigs were sealed. D: HIF status alters sensitivity to TPZ in vitro. HIFwt and HIFko MEFs were grown at high density in glass dishes and exposed to 21%, 2%, and <0.01% O2 conditions for 18 hours in the presence of varying concentrations of Tirapazamine. After exposure, cells were harvested, and replated under normoxia to determine clonogenic viability. Survival is calculated relative to the plating efficiency of cells exposed to 0 μM TPZ for each oxygen concentration. Error bars represent the standard error of the mean. E: Cell density alters sensitivity to TPZ. HIFwt and HIFko MEFs were grown at varying cell densities in glass dishes and exposed to 2% O2 in the presence of 10 μM TPZ for 24 h. After the exposure, survival was determined as described in […].
Cell lines and cell culture. Primary human fibroblasts have been described previously (Denko et al., 2003; Kim et al., 1997) and RKO human colon carcinoma cells were obtained from the American Type Culture Collection (ATCC, Manassas, Va.). RCC4, RCC4/VHL, and RCC4/Y98H human renal cell carcinoma cell lines have also been described previously (Chan et al., 2005). Wildtype and HIF-1α knockout mouse embryo fibroblasts (MEFs) were a gift from Dr. R Johnson (University of California, San Diego). All cells were grown in vitro as monolayers in Dulbeco's Modified Eagle's Media (DMEM) supplemented with 10% fetal bovine serum (FBS). For treatment with moderate hypoxia, cell culture dishes were placed into an Invivo2 humidified hypoxia workstation (Ruskinn Technologies, Bridgend, UK) at the indicated oxygen concentrations. Severe hypoxia was generated in an anaerobic workstation with a palladium catalyst (Sheldon Co., Cornelius, Oreg.). Tirapazamine toxicity was measured in cells plated overnight at the indicated density in glass dishes. The next day, fresh media was added containing the indicated concentration of TPZ, and the cells placed in the indicated oxygen environment. 24 hours later, the cells were trypsinized, counted, and plated for colony formation in normoxia.
Because HIF-1 can help cells adapt to hypoxia and maintain some intracellular oxygen level, it may also protect tumor cells from killing by the hypoxic cytotoxin tirapazamine (TPZ). TPZ toxicity is very oxygen dependent, especially at oxygen levels between 1-4% (Koch, 1993). We therefore tested the relative sensitivity of the HIFwt and HIFko cells to TPZ killing in high density cultures (FIG. 6d). We exposed the cells to the indicated concentrations of drug and oxygen concentrations overnight. The cells were then harvested and replated to determine reproductive viability by colony formation. […] The lower oxygen level is significant enough to dramatically sensitize these cells to killing by TPZ.

[3] = tested on: experimental tumors; details: literature reference (28); cited from earlier work
[4] = tested on: primary human or immortalized mouse fibroblasts; assay: Oxygen consumption of fibroblast suspensions (Clark electrode); format: cell-based
Experimental: FIG. 1. Hypoxia inhibits mitochondrial oxygen consumption. A: Oxygen concentration curves generated using a Clark electrode for fibroblast suspensions from cultures exposed to normoxia or hypoxia for 24 h. Arrows indicate addition of the mitochondrial uncoupler CCCP and cytochrome poison cyanide. The slope of the curve is a measure of the rate of oxygen consumption. B: Average oxygen consumption rates in normal human fibroblasts and immortalized murine fibroblasts cultured in normoxia or 0.5% O2 for 24 h. C: Fraction of total oxygen consumption due to mitochondrial versus non-mitochondrial consumption in wild-type murine fibroblasts. Mitochondrial consumption was determined using 1 ug/ml of the cell permeable complex 3 inhibitor Antimycin A. D: Change in oxygen consumption in RKO cells after exposure to the indicated time in 0.5% O2, and time to recovery in normoxia following 24 h hypoxia. For all graphs, the error bars represent the standard error of the mean.
Oxygen consumption measurements. […] Oxygen consumption was measured in a 0.5 ml volume using an Oxytherm electrode unit (Hansatech, Norfolk, UK). […]
HIF-1 downregulates mitochondrial oxygen consumption. Having identified several putative HIF-1 responsive gene products that had the potential to regulate mitochondrial function, we then directly measured mitochondrial oxygen consumption in cells exposed to long term hypoxia. […]

Structure (SMILES) | reduction of luciferase signal of HRE-reporter tumors [1] [%] | cell-density effect on TPZ toxicity in HIFko cells ([2]; 2% O2, 10 μM TPZ, 24 h, HIFko) | cell-density effect on TPZ toxicity in HIFwt cells ([2]; 2% O2, 10 μM TPZ, 24 h, HIFwt, highest density cultures) | effect of increased cell density on TPZ toxicity ([2]; 2% O2, 10 μM TPZ, 24 h, varying cell densities) | sensitivity of HIF-null cells to the drug relative to wild type cells ([2]; 2% oxygen, high density cultures, overnight) | sensitivity to TPZ killing (colony formation), HIFwt vs HIFko ([2]; 21% oxygen, high density cultures, overnight) | sensitivity to TPZ killing (colony formation), HIFwt vs HIFko ([2]; anoxic conditions, high density cultures, overnight) | reduction of the hypoxic fraction of experimental tumors [3] | effect on total cellular oxygen consumption ([4]; fibroblast suspensions from normoxic and hypoxic (24 h) cultures, mitochondrial uncoupler) | effect on oxygen consumption in hypoxia treated cells ([4]; hypoxia treated cells)
Nc1n[n+]([O-])c2ccccc2[n+]1[O-] [tirapazamine] | 90 | much more pronounced | some increased toxicity | increased TPZ toxicity | significantly greater sensitivity | equally resistant | equally sensitive | greater than 10 fold | – | –
N#CC(C#N)=NNc1cccc(Cl)c1 [CCCP, carbonyl cyanide 3-chloro phenylhydrazone] | – | – | – | – | – | – | – | – | stimulated | increase oxygen consumption
